“Also recorded” adds a separate entry of the source.
What was measured:
DAGLA = biological target: T1, DAGLA (Mus musculus, UniProt Q6WQJ1); assay: Activity against recombinant DAGLA; type: biochemical
T1 construct: Full-length cDNAs encoding serine hydrolases were purchased from Open Biosystems; V5; host or cells: HEK293T

[1] = tested on: serine hydrolases in mouse brain proteome; assay: Selectivity profile by competitive ABPP (mouse brain proteome), DAGL series; type: biochemical
endogenous DAGLB = biological target: T2, endogenous DAGLB (Mus musculus, UniProt Q91WC9); assay: HT01 labeling of endogenous DAGLB in mouse brain and peritoneal macrophage proteomes; type: biochemical; conditions: 2 μM pretreatment
T2 construct: from tissue; host or cells: mouse brain and peritoneal macrophages

peritoneal macrophages = assay: Metabolomics of thioglycolate-elicited peritoneal macrophages from treated mice; type: in vivo, mouse; conditions: 5 mg/kg, 4 hours, i.p.
Procedure: Mice were treated with KT109, KT172 or KT195 (5 mg/kg, 4 hours, i.p.) to evaluate whether blockade of DAGLB in peritoneal macrophages would result in metabolic effects similar to those observed in Neuro2A cells. Thioglycolate-elicited peritoneal macrophages were harvested, and the cells were subjected to metabolomics studies. […] All the metabolic effects observed in pharmacological studies were recapitulated using Daglb^−/− mice, providing genetic evidence that the changes were indeed DAGLB-mediated.
Metabolites were quantified by either selected reaction monitoring (SRM) of each metabolite using an Agilent G6410B Triple-Quad instrument or untargeted metabolomic analysis (substrate assays) using an Agilent 1100 series LC-MSD SL instrument. […] For analysis of diacylglycerols (DAGs) a Luna C5 column (50 mm×4.60 mm with 5 μm diameter particles) from Phenomenex was used. Mobile phase A was made of 95:5 v/v H2O:MeOH, and mobile phase B was composed of 60:35:5 v/v/v i-PrOH:MeOH:H2O. Ammonium hydroxide (0.1%) and formic acid (0.1%) was included to assist in ion formation in negative and positive ionization modes, respectively. For analysis of DAGs, 5 mM ammonium formate was also used in addition to 0.1% formic acid to assist in positive ionization and NH4+ adduct formation. For metabolite measurements, cells were resuspended in 1 mL of a 1% NaCl solution and added to 3 mL of a 2:1 v/v CHCl3:MeOH doped with 1 nmol of the following internal standards: d5-2-arachidonoylglycerol (2-AG), d8-arachidonic acid (AA), and d8-1-stearoyl-2-arachidonoylglycerol (SAG). The mixture was vortexed and then centrifuged (1,400×g, 3 min). The organic layer was removed, CHCl3 was added until the final volume was again 4 ml, and the extraction was repeated. The combined organic extracts were dried under a stream of N2 and resolubilized in 2:1 v/v CHCl3:MeOH (120 μl). 30 μL of resolubilized lipids were injected for positive mode (MAGs and DAGs) and negative mode (free fatty acids and eicosanoids) measurements.
The following parameters (MS) were used to measure the indicated metabolites by SRM (precursor ion, product ion, collision energy in V, polarity): C20:4 MAG or 2-AG (379, 287, 8, positive), d5-2-AG (384, 287, 5, positive), C18:0/C20:4 DAG or SAG (662, 341, 15, positive), d8-SAG (671, 671, 0, positive), C18:1/C20:4 DAG (660, 341, 15, positive), C16:0/C20:4 DAG (634, 341, 15, positive), C14:0/C20:4 DAG (606, 341, 15, positive), arachidonic acid or AA (303, 303, 0, negative), d8-AA (311, 267, 5, negative), PGE2 (351, 271, 10, negative), and PGD2 (351, 271, 10, negative). MS analysis was performed with an electrospray ionization source with the following parameters: drying gas temperature=350° C., drying gas flow rate=11 L/min, and the nebulizer pressure=35 psi. Prostaglandin SRM parameters were based on previously reported methods and transitions. Metabolites targeted by SRM were quantified by measuring the area under the peak in comparison with the internal standards. For metabolites where isotopic internal standards were not used, external standard curves with the internal standard versus metabolite standard were generated. In DAGL substrate assays, formation of the hydrolysis product, 2-AG was followed by measuring the area under the peak for 2-AG in comparison to the 1-monopentadecanoin standard ion.

DAGLB [2] = biological target: T3, DAGLB (Mus musculus, UniProt Q91WC9); assay: ABPP-SILAC in Neuro2A cells; conditions: about 4 hours; 25 nM KT172, 50 nM KT109
T3 sequence (Q91WC9 1-669): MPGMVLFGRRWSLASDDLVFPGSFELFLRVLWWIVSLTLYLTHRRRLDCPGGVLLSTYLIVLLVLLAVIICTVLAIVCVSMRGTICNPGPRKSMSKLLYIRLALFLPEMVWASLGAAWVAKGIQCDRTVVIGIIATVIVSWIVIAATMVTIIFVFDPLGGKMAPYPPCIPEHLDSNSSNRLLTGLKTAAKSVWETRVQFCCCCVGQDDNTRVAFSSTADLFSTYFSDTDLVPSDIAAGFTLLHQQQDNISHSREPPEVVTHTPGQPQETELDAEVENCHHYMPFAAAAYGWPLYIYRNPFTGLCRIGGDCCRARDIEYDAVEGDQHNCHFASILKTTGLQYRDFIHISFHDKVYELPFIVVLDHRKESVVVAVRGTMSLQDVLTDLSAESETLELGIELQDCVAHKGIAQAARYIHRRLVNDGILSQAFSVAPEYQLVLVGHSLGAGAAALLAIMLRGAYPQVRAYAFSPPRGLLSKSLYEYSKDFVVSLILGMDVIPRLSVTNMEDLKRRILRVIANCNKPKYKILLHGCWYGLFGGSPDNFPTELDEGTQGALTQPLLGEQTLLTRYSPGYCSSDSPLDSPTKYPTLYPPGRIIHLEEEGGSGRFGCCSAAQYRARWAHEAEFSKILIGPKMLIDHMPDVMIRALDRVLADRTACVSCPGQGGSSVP

DAGLB [3] = biological target: T3, DAGLB; assay: ABPP-MudPIT of peritoneal macrophages from treated mice; conditions: in vivo
[4] = tested on: serine hydrolases in the peritoneal macrophage proteome; assay: ABPP-MudPIT of peritoneal macrophages from treated mice, off-targets; conditions: mouse, in vivo
DAGLB [5] = biological target: T3, DAGLB; assay: In situ inhibition in Neuro2A cells, competitive ABPP with HT-01; type: cell-based; set-up: from tissue; host or cells: thioglycolate-elicited peritoneal macrophages of treated mice; conditions: 4 hours
Procedure: For gel-based competitive ABPP studies, proteomes from cells treated in situ with inhibitor for 4 h at 37° C. at the indicated concentrations (n=3) were labeled with HT-01 (1 μM) for 30 min at 37° C. After quenching, SDS-PAGE, and in-gel visualization, the percentage of enzyme activity remaining was determined by measuring the integrated optical intensity of the bands using IMAGER® software. For LC-MS substrate assays, the percentage of enzyme activity remaining was determined by comparing the specific activity (amount of 2-AG formed per min per mg of proteome) of inhibitor with DMSO-treated samples. The IC50 values were determined from a dose-response curve generated using GraphPad PRISM® software.

DAGLB [6] = biological target: T3, DAGLB; assay: In vivo DAGLB inactivation in peritoneal macrophages, gel-based competitive ABPP using HT01; set-up: from tissue; host or cells: thioglycolate-elicited peritoneal macrophages of treated mice; conditions: i.p.
DAGLB [7] = biological target: T3, DAGLB; assay: Gel-based ABPP assay against recombinant DAGLB (HEK293T-DAGLB lysates); type: biochemical; set-up: Full-length cDNAs encoding serine hydrolases were purchased from Open Biosystems; V5; host or cells: HEK293T; conditions: recombinant

T1 sequence (Q6WQJ1 whole entry): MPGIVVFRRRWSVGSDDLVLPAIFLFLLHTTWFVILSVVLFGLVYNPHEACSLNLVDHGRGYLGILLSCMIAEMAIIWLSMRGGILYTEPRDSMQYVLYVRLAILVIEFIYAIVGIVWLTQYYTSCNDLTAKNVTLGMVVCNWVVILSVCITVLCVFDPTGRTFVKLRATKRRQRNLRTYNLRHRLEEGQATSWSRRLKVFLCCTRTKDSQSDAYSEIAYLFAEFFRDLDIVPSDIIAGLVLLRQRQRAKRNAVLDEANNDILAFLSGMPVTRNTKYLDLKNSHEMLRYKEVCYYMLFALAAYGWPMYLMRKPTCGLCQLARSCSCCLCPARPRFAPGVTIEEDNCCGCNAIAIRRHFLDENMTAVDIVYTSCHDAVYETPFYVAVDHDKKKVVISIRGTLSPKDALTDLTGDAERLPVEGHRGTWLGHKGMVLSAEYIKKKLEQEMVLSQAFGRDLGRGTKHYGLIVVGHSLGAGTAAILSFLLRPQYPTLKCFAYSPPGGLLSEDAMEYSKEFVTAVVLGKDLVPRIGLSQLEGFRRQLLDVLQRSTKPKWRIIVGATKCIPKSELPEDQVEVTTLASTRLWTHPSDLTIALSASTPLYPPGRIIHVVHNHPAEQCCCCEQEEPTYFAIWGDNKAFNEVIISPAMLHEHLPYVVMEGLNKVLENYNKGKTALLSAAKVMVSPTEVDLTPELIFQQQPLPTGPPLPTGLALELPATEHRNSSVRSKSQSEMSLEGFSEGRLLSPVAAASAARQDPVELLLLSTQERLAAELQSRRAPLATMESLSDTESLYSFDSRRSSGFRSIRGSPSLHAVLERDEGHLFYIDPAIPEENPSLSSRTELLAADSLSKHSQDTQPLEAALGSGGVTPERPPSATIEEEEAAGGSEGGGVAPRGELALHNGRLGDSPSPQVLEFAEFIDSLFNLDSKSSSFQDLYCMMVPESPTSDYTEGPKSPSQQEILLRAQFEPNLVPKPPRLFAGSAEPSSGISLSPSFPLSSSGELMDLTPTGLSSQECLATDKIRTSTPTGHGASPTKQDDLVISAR

- reduction of HT01 probe labeling of the DAGLB band (endogenous DAGLB): > 80%
- DAGLB activity blocked (DAGLB [2]): approximately 90%
- DAGLB inhibition by spectral counting (DAGLB [3]): confirmed inhibition of DAGLB
- IC50 (DAGLB [5]): 0.011 µM
- time to complete inhibition of DAGLB (DAGLB [6]; 5 mg/kg): within the first hour
- duration / time-course of DAGLB inhibition (DAGLB [6]; 5 mg/kg, about 1 to 16 hours): shorter compared with KT109
- dose (as low as) giving complete inactivation of DAGLB in peritoneal macrophages (DAGLB [6]; about 4 hours, doses about 10 to about 0.1 mg/kg): 0.5 mg/kg
- activity against DAGLB (DAGLB [7]): maintaining potency against DAGLB
SMILES: COc1ccccc1-c1ccc(-c2cn(C(=O)N3CCCCC3Cc3ccccc3)nn2)cc1 (centres unmarked) [KT172]
- activity against DAGLA (DAGLA): more potent against the alpha isoform in comparison with KT109
- off-target activity / selectivity against other serine hydrolases [1]: mild activity against this off-target enzyme at higher concentrations; also recorded: slightly increased activity against MGLL
- change in 2-AG (peritoneal macrophages): Dramatic decreases in 2-AG
- change in SAG (peritoneal macrophages): significant increases in SAG
- change in cellular AA, PGE2 and PGD2 (peritoneal macrophages): significant decreases in cellular AA levels and a corresponding reduction in PGE2 and PGD2
- off-target activities [4]: carboxylesterases (Ces3 and Ces2g)
